Experimental data: US9725477B2, “Platinum compounds of malonic acid derivative having leaving group containing amino or alkylamino” (BEIJING FSWELCOME TECHNOLOGY DEVELOPMENT CO., LTD, priority 2012, dated 2017)
Like-named read-outs stand apart in the source and are kept apart here.

Tests used:
normal mice = experiment: in vivo; conditions: Table 3; mice, single intravenous administration, 14 days observation
Method: (§1) Kunming mice with 4˜6 weeks old and 18 g˜22 g by weight were taken, 50% males and 50% females. […] The condition of mortality and toxicity were observed after administration. Totally observing for 14 days, LD50 value was calculated using Bliss method according to the mortality.

Breast cancer MCF-7 = experiment: MTT cytotoxicity, breast cancer MCF-7; format: cell-based; conditions: Breast cancer MCF-7, MTT, n = 6
[1] = tested on: Breast cancer MCF-7 cisplatin resistance strain; experiment: MTT cytotoxicity, breast cancer MCF-7 cisplatin resistance strain; format: cell-based; conditions: n = 6
Lung cancer A549 = experiment: MTT cytotoxicity, lung cancer A549; conditions: read-out: cytotoxicity IC50; Lung cancer A549, MTT, n = 6, Table 4
Method: Cell morphologies were observed after being cultivated for 24 hours.

Lung cancer H292 = experiment: MTT cytotoxicity, lung cancer H292; format: cell-based; conditions: Lung cancer H292, MTT, n = 6; read-out: cytotoxicity IC50
[2] = tested on: Alveolar epithelial cells BEAS-2B; experiment: MTT cytotoxicity, alveolar epithelial cells BEAS-2B; format: cell-based; conditions: Alveolar epithelial cells BEAS-2B, MTT, n = 6; read-out: cytotoxicity IC50
Lung cancer Lewis = experiment: MTT cytotoxicity, lung cancer Lewis; format: cell-based; conditions: Lung cancer Lewis, MTT, n = 6; read-out: cytotoxicity IC50
colon cancer SW480 = experiment: MTT cytotoxicity, colon cancer SW480; format: cell-based; conditions: colon cancer SW480, MTT, n = 6; read-out: cytotoxicity IC50
Testis cell ST = experiment: MTT cytotoxicity, testis cell ST; format: cell-based; conditions: n = 6
gastric cancer MGC803 = experiment: MTT cytotoxicity, gastric cancer MGC803; format: cell-based; conditions: n = 6
Esophagus cancer ECA109 = experiment: MTT cytotoxicity, esophagus cancer ECA109; format: cell-based; conditions: n = 6
[3] = existing platinum drugs, background section; cited from earlier work
in vivo = conditions: both, Kunming, mouse, in vivo, iv
Method: as §1

[4] = MTT cytotoxicity, testis cell ST; format: cell-based; conditions: pig, ST testis cells, n = 6
Solubility in water = conditions: water
[5] = MTT cytotoxicity, alveolar epithelial cells BEAS-2B; format: cell-based; conditions: human, BEAS-2B alveolar epithelial cells; Alveolar epithelial cells BEAS-2B, MTT, n = 6

Compound	LD50 vALUE (normal mice)	IC50 (Breast cancer MCF-7)	IC50 [1]	IC50 (Lung cancer A549)	IC50 (Lung cancer H292)	solubility (Solubility in water)	further results
N.N.O=C([O-])C1(C(=O)[O-])CCC1.[Pt+2] [Carboplatin, cis-1,1-cyclobutanedicarboxylatodiamminoplatinum, reference compound]	0.336 mmol/kg	103 µM	255 µM	232 µM	55 µM		IC50 [2]: 37 µM; IC50 (Lung cancer Lewis): 38 µM; IC50 (colon cancer SW480): 87 µM; IC50 (Testis cell ST): 195 µM; IC50 (gastric cancer MGC803): 625 µM; IC50 (Esophagus cancer ECA109): 52 µM; solubility [3]: 17.8 mg/mL
CCN(CC)CCCCC1C(=O)[O][Pt]([NH2])([N]2CCCCC2)[O]C1=O (stereo not drawn) [Compound 28, 2-(4-diethylaminobutyl)-malonate•cis-ammonia•piperidine platinum (II) acetate]						> 300 mg/mL	LD50 at 14 days (in vivo): 725 µmol/kg; IC50 [4]: 61 µM
CCN(CC)CCCCC1C(=O)[O][Pt]2([NH]C3CCCCC3[NH]2)[O]C1=O.Cc1ccc(S(=O)(=O)O)cc1 (racemic) [Compound 3, 2-(4-diethylaminobutyl)-malonate•cis-(1,2-trans-cyclohexanediamine) platinum (II) tosilate]	0.815 mmol/kg	7 µM	21 µM	8 µM	6 µM		
CCN(CC)CC(C)CCC1C(=O)[O][Pt]([NH2])([NH2])[O]C1=O (stereo not drawn) [Compound 8, 2-(3-methyl-4-diethylaminobutyl)-malonate•cis-diamine platinum (II) acetate]						> 300 mg/mL	LD50 (in vivo): 801 µmol/kg; IC50 [5]: 5 µM
